Key:
[1] = test system: dorsal root ganglion (DRG) neurons; assay: Resting membrane potential of DRG neurons, whole-cell current clamp; format: cell-based, mice; settings: 10 μM, pH 7.4, 120 s application
Experimental: (§1) All animal experiments were approved by the local Animal Care and Use Committee and followed international guidelines. Five female 7-12 week-old C57BL/6 mice (Scanbur) were used for this study. The mice were anaesthetized with isoflurane and decapitated. Dorsal root ganglia (DRG) were dissected from all spinal levels and enzymatically digested with collagenase (250 CDU/ml) for 15 min, and then trypsin (1 mg/ml) was added for another 30 min. The ganglia were centrifuged and resuspended in Leibovitz L-15 media with glutamine, supplemented with 10% fetal calf serum, 38 mM glucose, 24 mM NaHCO3 and penicillin/streptomycin. The ganglia were triturated and the DRG neurons plated on poly-D-lysine coated plastic coverslips. The neurons were cultured at 37° C. with 5% CO2 for 2-3 days before the electrophysiological recordings.
(§2) All manual electrophysiological recordings were performed at room temperature (20-23° C.), using a GeneClamp 500B amplifier (for oocytes) or a Axopatch 200B amplifier (for manual patch clamp of CHO—K1 cells and DRG neurons) and a Digidata 1440A digitizer and pClamp 10 software (all from Molecular Devices, Inc., Sunnyvale, Calif., USA). Compounds were dissolved to 100 mM in 99.5% EtOH and stored at −20° C. Compounds were diluted in extracellular solution to the desired test concentration.
(§3) CHO—K1 Cells were plated on coverslips 2 h before the manual electrophysiological recordings. Coverslips with CHO—K1 cells or DRG neurons were placed in a recording chamber and perfused with extracellular solution by a gravity-fed perfusion system. Substances were applied by a pressurized, automated OctaFlow perfusion system (ALA Scientific Instruments). The signals were sampled at 5-20 kHz after low-pass filtering at 2-5 kHz. For CHO—K1 cells the intracellular solution contained (in mM): 120 K-gluconate, 10 KCl, 5 EGTA, 10 HEPES, 4 Mg-ATP, 0.3 Na-GTP, pH 7.3; the extracellular solution contained (in mM): 135 NaCl, 4 KCl, 10 HEPES, 1 MgCl2, 1.8 CaCl2, 10 glucose, pH 7.4. Currents were evoked in CHO—K1 cells in whole-cell voltage-clamp mode from a holding potential of −80 mV by 100-ms long, 10-mV steps ranging from −80 to +80 mV.
(§4) For DRG neurons the intracellular solution contained (in mM): 120 K-gluconate, 10 KCl, 1 EGTA, 10 HEPES, 4 Mg-ATP, 0.3 Na-GTP, pH 7.3; the extracellular solution contained (in mM): 144 NaCl, 2.5 KCl, 10 HEPES, 0.5 MgCl2, 2 CaCl2, 10 glucose, pH 7.4. A liquid-junction potential of approximately −14 mV was corrected for. […] Small and medium sized DRG neurons were selected for whole-cell current-clamp recording. 10 μM of the compounds were applied for 120 s to study the effect on the resting membrane potential, and for 45-120 s to study the effects on evoked action potentials. To evoke action potentials 800-ms depolarizing pulses
The compound effect on the resting membrane potential Vm was determined by subtracting the control pre-compound Vm from the Vm at the end of the 120 s application of test compound.

3R Shaker K channel = 3R Shaker K channel (Drosophila melanogaster, UniProt P08510, A359R/M356R); assay: G(V) shift of 3R Shaker K channel stably expressed in CHO-K1 cells, whole-cell patch clamp; format: cell-based; settings: 10 μM, pH 7.4
Sequence of 3R Shaker K channel (P08510 whole entry M356R/A359R): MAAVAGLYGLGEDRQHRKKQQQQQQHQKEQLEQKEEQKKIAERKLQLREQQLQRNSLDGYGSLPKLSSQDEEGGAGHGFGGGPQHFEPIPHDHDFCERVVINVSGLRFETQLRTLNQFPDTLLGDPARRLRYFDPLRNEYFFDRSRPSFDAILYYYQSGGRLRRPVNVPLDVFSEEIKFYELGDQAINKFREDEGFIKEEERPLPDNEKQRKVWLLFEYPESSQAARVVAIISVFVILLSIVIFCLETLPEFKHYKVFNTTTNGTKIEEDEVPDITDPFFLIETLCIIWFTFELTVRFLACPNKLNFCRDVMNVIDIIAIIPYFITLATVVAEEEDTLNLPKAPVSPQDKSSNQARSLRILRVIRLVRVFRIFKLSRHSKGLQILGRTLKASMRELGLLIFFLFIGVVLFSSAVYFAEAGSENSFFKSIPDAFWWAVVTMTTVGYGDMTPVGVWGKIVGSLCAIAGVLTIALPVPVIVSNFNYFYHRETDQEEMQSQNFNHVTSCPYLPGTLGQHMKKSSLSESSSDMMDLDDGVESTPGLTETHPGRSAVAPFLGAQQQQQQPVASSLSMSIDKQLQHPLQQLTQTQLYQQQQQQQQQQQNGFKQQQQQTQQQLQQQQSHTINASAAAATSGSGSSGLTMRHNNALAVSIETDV
Excerpt: All animal experiments were approved by the local Animal Care and Use Committee and followed international guidelines. A modified Shaker H4 channel^30, with removed N-type inactivation (ShH4IR)^31, here called the wild type (WT) channel, was expressed in oocytes. In addition, a modified 3R Shaker K channel where two introduced positive charged arginines (M356R and A359R) in addition to one native arginine (R362) makes the channel more sensitive to DHA^16, was expressed in oocytes and in a CHO—K1 stable cell line.
For the modified 3R Shaker K channel a stable cell line was generated. The construct was cloned into the pcDNA3 vector. CHO—K1 cells were plated into T75 culture flasks and grown without penicillin/streptomycin. […]
where IK is the average current from the steady-state phase at the end of each 100-ms pulse, V is the membrane voltage, and Vrev is the reversal potential for K^+, (set to −80 mV for the oocytes, and calculated to be −89 mV for the CHO—K1 cells).
where A is amplitude of the curve, V is the absolute membrane voltage, V1/2 is the midpoint, s is the slope and n is an exponent set to 4^17. The compound-induced G(V) shift was determined at the 10% level of the maximum conductance in control solution^17. The compound-induced G(V) shift in CHO—K1 was quantified by subtracting the control V1/2 from the compound V1/2 when n was set to 1.

[2] = test system: dorsal root ganglion (DRG) neurons; assay: Evoked action potentials (excitability) of DRG neurons, current clamp; format: cell-based, mice; settings: 10 μM; for effect on the after hyperpolarization: cell with single action potential; for effect on resting potential, cell with single action potential: constant current pulse; for effect on train of action potentials: continuous pulse
Experimental: as §1, §2, §3, §4

SMILES: CO/N=C1\CC2[C@](C)(C(=O)O)CCC[C@]2(C)c2cc(Br)c(C(C)C)cc21 (stereo partly drawn) [Wu32, (1R,4aS,E)-6-bromo-7-isopropyl-9-(methoxyimino)-1,4a-dimethyl-1,2,3,4,4a,9,10,10a-octahydrophenanthrene-1-carboxylic acid]
- shift of the resting membrane potential (ΔVm) [1]: intermediately potent hyperpolarizers

SMILES: CC(C)c1ccc2c(c1)C(C(=O)O)CC1[C@](C)(C(=O)O)CCC[C@]21C (stereo partly drawn) [Wu35]
- G(V) shift in CHO cells (3R Shaker K channel): very poor shifter
- effect on the after hyperpolarization [2]: only a very small effect
- effect on resting potential, cell with single action potential [2]: almost no effect
- effect on train of action potentials [2]: almost no effect on the same cell
- shift of the resting membrane potential (ΔVm) [1]: −1.1±0.4

SMILES: C[C@@]1(C(=O)O)CCC[C@]2(C)c3cc(Cl)c(Cl)c(Cl)c3CCC12 (stereo partly drawn) [Wu50, (1R,4aS)-6,7,8-trichloro-1,4a-dimethyl-1,2,3,4,4a,9,10,10a-octahydrophenanthrene-1-carboxylic acid]
- effect on the after hyperpolarization [2]: pronounced effect
- effect on resting potential, cell with single action potential [2]: made the resting potential more negative
- effect on train of action potentials [2]: completely abolished all action potentials
